# A melting point compilation (Tetko et al.; mined from patent text by program, amines drawn as free bases though some values may be those of a salt)
row,Structure (SMILES),melting point [°C]
1,CON=C(N)Nc1nccc(C)n1,152
2,CN1CCCC1=C(C#N)c1ccc([N+](=O)[O-])cc1,67
3,N#CCC(c1ccccn1)c1cc(N)cc2c1OCC2 (configuration not stated),143 to 144
4,O=C(C=Cc1ccccc1)N1CCc2c([nH]c3ccccc23)C1c1ccccc1 (configuration not stated),130 to 132
5,Cc1nc(N(C)c2ccccc2)n2ncc(C(=O)c3ccccc3)c2n1,121
6,O=C(c1cccc(OCCCN2C(=O)c3ccccc3C2=O)c1)N1CCCCC1,120 to 122
7,CS(=O)c1ccc(-c2coc3ccc(-c4nnc(S)o4)cc23)cc1 (configuration not stated),234 to 235
8,Cc1ccc(S(=O)(=O)OCC2Cc3cccc(-c4cccc(C)c4)c3O2)cc1 (configuration not stated),81 to 82
9,COC(=O)Cc1ccc(OCc2ccc3ccccc3n2)c(OC)c1,69
10,O=C1c2ccccc2C(=O)c2c1cc(CBr)c1c2CCC1,225 to 230
11,CC(C)(CC(O)(Cn1ccc2c1CCCC2=O)C(F)(F)F)c1cccc2c1OCC2 (configuration not stated),145 to 146
12,O=C1NC(=O)C(Cc2cc(O)c(O)c([N+](=O)[O-])c2)C(=O)N1,263 to 266
13,Cn1cc(-c2cccc(N3Cc4cc(C(C)(C)C)ccc4C3=O)c2CO)cc(Nc2ccncn2)c1=O,216 to 218
14,O=C(CCNCC(O)COc1cccc2occc12)NCc1ccccc1 (configuration not stated),109 to 110
15,Nc1cc(Oc2ccc3c(c2)OCCN3)ncn1,140 to 141
16,Cc1cc(Cl)ccc1N=c1scc(-c2ccc(Cl)c(S(=O)(=O)N(C)C)c2)n1C,137 to 141
17,CCOCc1nc2c(N)nc(C)c(C)c2n1NC1CCN(S(C)(=O)=O)CC1,127 to 131
18,COC(=O)Cc1ccc(CNC(=O)C2Cc3ccccc3N2S(=O)(=O)c2ccc(-c3ccc(F)cc3F)cc2)cc1 (configuration not stated),68 to 72
19,Nc1ccc2c(=O)[nH]c(=O)n(CCCCN3CCC(OC(c4ccccc4)c4ccccc4)CC3)c2c1,162 to 164
20,NCc1nc(-c2ncn3c2[C@@H]2CCN2C(=O)c2ccccc2-3)no1,211 to 214
21,O=C(O)c1ccc2c(c1)Sc1ccccc1N=C2N1CCOCC1,267 to 269

row,Structure (SMILES),melting point [°C]
1,CC(=O)C(=Cc1c(-c2ccccc2)nc2sc(C)nn12)C(=O)N(C)C,185 to 187
2,CCOC(=O)c1cnc2n(c1=O)CCc1cc(OC)ccc1-2,158 to 160
3,CCCc1c(C(=O)NCc2ccc(-c3ccc(OCC(=O)O)cc3)cc2)cnn1-c1ccccc1,190 to 192
4,CC1CC2=CC(=O)CCC2=C2CCC3(C)C(=O)CCC3C21 (configuration not stated),204 to 205
5,CCCCNC(=O)CSc1nc(Cl)cc(Cl)n1,109 to 111
6,CCn1c(C=O)cnc1[N+](=O)[O-],38 to 40
7,C(#Cc1ccccc1)CCN1CCC(c2ccccc2)CC1,65 to 66
8,O=C1N(Cc2ncccc2F)c2ccccc2C12COc1cc3c(cc12)OCCO3 (configuration not stated),125 to 126
9,Fc1ccc(-c2nc3occn3c2-c2ccnc(N[C@H]3CN4CCC3CC4)n2)cc1,217 to 218
10,COc1ccc(COCCC(C(=O)O)c2ccccc2)cc1 (configuration not stated),114 to 115
11,COc1ccc(-c2cc3ccccc3[nH]2)cc1O,217
12,NC(CO)(CO)CCc1ccc(C(=O)CCCCCCc2ccccc2)cc1,121 to 122
13,CCc1nn2ccc3c(c2c1CC#N)CCO3,179 to 180
14,CC(=O)N[C@H]1CC[C@H](CCN2CCN(c3ncc(C)c4occc34)CC2)CC1,208
15,CCOC(=O)c1c(N)sc(C#N)c1C,200 to 202
16,CCOC(=O)c1cn(-c2nc(NC(C)(C)C)c(F)cc2Cl)c2c(Cl)c(F)c(F)cc2c1=O,210 to 213
17,COc1ccc(C(NCCC(c2ccccc2)c2ccccc2)c2cccc(Nc3c(N)c(=O)c3=O)c2)cc1 (configuration not stated),132 to 134
18,[N-]=[N+]=NC[C@H]1OC(O)[C@H](O)[C@@H](O)[C@@H]1O (some centres not stated),128 to 130
19,CC1(C)Oc2ccc(C#N)cc2C(Oc2ccccn2)C1O (configuration not stated),102 to 103
20,Cc1ccc(S(=O)(=O)Cc2c(C(F)(F)F)nn(C)c2O)cc1,135
21,CCOc1c(Cl)ccc(-c2nc(C(=O)OC)c(Cl)c(S(C)(=O)=O)n2)c1F,164 to 166

# The remaining lines, values ahead:
row,melting point [°C],Structure (SMILES)
1,137 to 138,COCc1cc(-c2csc(N)n2)on1
2,57 to 59,CCOC(=O)CCn1c(-c2ccc(Cl)cc2)nc2cccnc21
3,129,COc1cc2c(c(Cl)c1Cl)C(=O)C(C)C2 (configuration not stated)
4,106 to 107,CCOC(=O)Cn1ncc2c(Br)c(OC)ccc21
5,145 to 146,Cn1cc(C(O)c2ccncc2)cc1C(=O)c1ccc(Cl)cc1 (configuration not stated)
6,323 to 327,O=c1[nH]c2cc(F)c(Br)c([N+](=O)[O-])c2[nH]c1=O
7,233 to 236,Cc1nc(N2CCCC2)ccc1N1CCCn2c1nc1c(Cl)ccc(C(OC(F)F)C(F)(F)F)c12 (configuration not stated)
8,195 to 196,CCn1c2ccccc2c2ccncc21
9,106 to 109,CCOCn1c(Cl)c(C#N)c(Cl)c1-c1ccc(Cl)c(Cl)c1
10,173,CCOC(=O)c1nn(-c2ccc([N+](=O)[O-])cc2)c2c1CCCC2
11,209 to 210,CC(C)(O)Cn1c(CONC(=O)C2CC2)nc2c(N)nc3ccccc3c21
12,214 to 217,CON1C=C2N=NC3=C(N2C1)N(c1ccccc1)CC(C)=C3
13,203 to 209,CCOc1nc(NC)nc(NC(=O)NS(=O)(=O)c2cccc3c2nnn3C)n1
14,150 to 151,CC1(C)OC[C@H](Cc2ccccc2)N1C(=O)Cn1cc(-c2ccc(-c3ccccc3)cc2)cn1
15,189 to 191,O=C1NC(=O)C(Cc2ccc(OCc3nc4cccnc4n3Cc3ccc(-c4ccccc4)cc3)cc2)S1 (configuration not stated)
16,95 to 96,CCCC(=O)c1cnc2c(C(O)CN(C)C)cccc2c1Nc1ccccc1C (configuration not stated)
17,114 to 116,CCc1nn(C2CCCC2)c2nc(COS(C)(=O)=O)nc(OS(C)(=O)=O)c12
18,189,Cc1c(C#N)c(-c2ccc(C#N)cc2)c(C)n1Cc1ccc(Cl)c(CO)c1
19,63 to 65,CC#CCOc1ccc(S(=O)(=O)NCCC(=O)OC(C)(C)C)cc1
20,86 to 87,Cc1ccc(C(=O)NCCCSc2ccncc2)s1

row,melting point [°C],Structure (SMILES)
1,232 to 236,NC(=O)c1cc2cc(F)ccc2nc1N
2,247 to 255,Cc1oc(-c2ccc(Cl)cc2)cc1C(=O)Nc1cc(Cl)ccc1-c1nnn[nH]1
3,90 to 91,Clc1ccc2scc(-c3ccncc3)c2c1
4,319 to 320,Cc1c(C#N)c(O)cc2nc(Cc3ccccc3)nn12
5,127 to 129,Cc1ccccc1-c1cc(C#N)cc2c1OC(CN)C2 (configuration not stated)
6,178 to 181,CC(=O)c1cccc2cc3cccc(C(C)=O)c3cc12
7,224 to 227,CN1C(=O)CN(c2ccc(OCc3ccccc3)cc2)NC1=O
8,136 to 138,COc1ccc2c(n1)C1(CO2)C(=O)N(Cc2csc(C(C)C)n2)c2ccccc21 (configuration not stated)
9,126 to 127,COc1c(C)c(C)c(OC)c(C(O)(c2cccnc2)C2CCCC2)c1C (configuration not stated)
10,136 to 138,N#CCCCCn1cnc(NC(=S)NCC(F)(F)F)n1
11,108 to 109,COc1ccc(N(C)c2nc(C)nc3oc(C)cc23)cc1
12,194 to 199,COc1cc(OC2OC(CO)C(O)C(O)C2O)ccc1C=Cc1cc(C=Cc2ccc3cc[nH]c3c2)n[nH]1 (configuration not stated)
13,240 to 241,Cc1oc2c(-c3ccc(F)cc3)c(-c3ccc(S(C)(=O)=O)cc3)nn2c1-c1cccs1
14,192 to 194,CCc1nc(O)c2c(n1)c(C)nn2CC
15,113 to 115,CC(C)=CCOc1c(-c2ccc(S(C)(=O)=O)cc2)cnn(-c2cccc(Cl)c2)c1=O
16,99 to 101,CS(=O)(=O)Nc1cc(C(O)CNCCCCCCOCCC2CCCCC2)ccc1O (configuration not stated)
17,> 250,CSc1nc2ccnn2c(O)c1C#N
18,102,Cc1ccc(-c2ccc(-c3ccccc3)s2)s1
19,261,CCOC(=O)c1c(-c2cccc(Cl)c2)c2cc(C(=O)c3nc(-c4ccccc4)cs3)ccc2[nH]c1=O
20,106 to 110,CNCC(=O)N1c2ccccc2N2CCc3cccc(c32)C1C (configuration not stated)

row,melting point [°C],Structure (SMILES)
1,145 to 147,CCOC(=O)C(C)=C(C)NC(=O)Nc1cc(C(=O)OC(C)C)c(Cl)cc1F
2,135 to 136,CC(C)N(C=Nc1ncc(Oc2ccc(Cl)cc2)c(Cl)n1)C(C)C
3,65,CCC/C=C/c1ccc(C#CC(C)(C)O)cc1
4,83 to 84,C=CCN(CC=C)c1nc(Cl)nc2c(SC)ncnc12
5,155 to 157,COc1ccc2[nH]c(S(=O)Cc3cc(N(C)C)c(Cl)cn3)nc2c1 (configuration not stated)
6,115 to 122,COc1cccc(S(=O)(=O)c2ccc3c(c2)c(CCNC(=O)OC(C)(C)C)c(C)n3C)c1
7,99.6,O=C(NN=Cc1ccnc2ccccc12)c1cccnc1
8,99 to 101,O=C(SCCC(=O)N1c2ccccc2CCC1C(=O)O)c1ccccc1 (configuration not stated)
9,154 to 156,O=c1cc(C(F)(F)F)nc(Nc2cc(C(F)(F)F)ccc2C(F)(F)F)n1C1CCCCC1
10,74 to 76,O=C(O)CCNC(=O)CCCCC1CCSS1 (configuration not stated)
11,68,Cc1cc2c(cc1C(=O)CBr)C(C)(C)CC(C)C2(C)C (configuration not stated)
12,198 to 199,CCNCC1CCN(c2c(F)c(C)c3c(=O)c(C(=O)O)cn(C4CC4)c3c2F)C1 (configuration not stated)
13,129 to 131,COCOCc1nc(N)c2nccnc2n1
14,97 to 99,CC(C)OCC(O)CN1CCC2(CC1)CSC1=C(O2)c2ccccc2C(=O)C1=O (configuration not stated)
15,218 to 220,O=C(NCC(=O)N1c2ccccc2N(Cc2ccccc2)C(=O)[C@H]2CCC[C@H]21)c1ccc(C(F)(F)F)cc1 (relative stereo)
16,228 to 230,O=c1c2cc(F)c(N3CCCC3)cc2n(CCF)c(=O)n1O
17,88 to 90,CCC(=O)n1c(=O)oc2ccccc21
18,190 to 193,CC(=O)Nc1ccc(C)c2c1C(=O)CCN2CC#N
19,155 to 158,Nc1ncnc2sc(CCO)c(-c3ccc(NC(=O)Nc4cccc(C(F)(F)F)c4)cc3)c12
20,166,Cc1cc2n(c1C(=O)c1cccs1)CCC2C(=O)O (configuration not stated)
